{
  "source": "patent US20150328183A1",
  "about": "“PHARMACEUTICAL COMPOSITION AND USE FOR APPLYING 7,7''-DIMETHOXYAGASTISFLAVONE IN INHIBITING TUMOR METASTASIS” (NATIONAL CHIAO TUNG UNIVERSITY, priority 2014, published 2015)",
  "key": {"[1]": {"system": "Matrix metalloproteases-2 (MMP2) expression in B16F10 cells", "assay": "MMP2 RNA expression by real-time PCR", "type": "cell-based, mouse", "conditions": "1 μg/ml DMGF, 0 hour group defined as 1 times", "protocol": "Culturing condition of B16F10 cells with tissue culture techniques is the same as example 2. B16F10 cell suspension was incubated in at least three plates, two of which were added biflavonoid DMGF (final concentration 1 μg/ml) and set back to 37° C. incubator and incubating for 12 and 24 hours, respectively. The culture medium and additional compound were sucked, and then the plate was washed with PBS. B16F10 cells were collected with trypsin-EDTA. And the third well was processes without DMGF, colleting B16F10 cells according to the above-mentioned method. Then total B16F10 cellular RNA was extracted with TRIzol (Invitrogen Life Technologies, Carlsbad, Calif., USA) and reverse-transcribed into cDNA using the extracted RNA template. The cDNA was further a template for real-time polymerase chain reaction (Real-time PCR). The forward primer and the reverse primer of MMP2 were [NT] and [NT], repectively, thus quantified the MMP2 expression level in the above-mentioned time period of control group and experiment group of the present example. In detail, reverse-transcription PCR was treated with SuperScript First-Strand system (Invitrogen Life Technologies). […] While the MMP2 expression level of “0 hour” group is defined as 1 times, the MMP2 expression level of “12 hours” group and “24 hours” group are both calculated according to the “0 hour” group."}, "Aspergillus flavus": {"system": "Aspergillus flavus", "conditions": "cited from earlier work"}, "[2]": {"system": "SVEC4-10 mouse vascular endothelial cells", "assay": "Polymerization of fibrous actin (Phallotoxin/DAPI staining)", "type": "cell-based", "conditions": "SVEC4-10 cells, 16 ng/ml VEGF, 1 μg/ml DMGF, 3 to 4 hours", "protocol": "Tissue culture technology for culturing SVEC4-10 mouse vascular endothelial cells can be referred to the culturing method of B16F10 in example 2, and is not repeated here. SVEC4-10 cell suspension (3×10^4) were incubated in at least two plates and treated with 16 ng/ml VEGF (Upstate Inc., Lake Placid, N.Y., USA) medium in the two 96-well plate, and one of the plate was further added with 1 μg/ml DMGF as an experiment group. After adding the culture medium and the above-mentioned compound, SVEC4-10 cells were incubated in 37° C. incubator for 3 to 4 hours and then dyed with diamidino-phenyl-indole (DAPI) and Phallotoxin, respectively. Diamidino-phenyl-indole can be combined with double-stranded DNA to label the position of nucleus. Phallotoxin capable of combining with fibrous actin is often used as the dye for observing the polymerization of fibrous actin. After dyeing, the polymerization of fibrous actin was observed under 40 magnification microscopic lens.\n“A” (filaments or spot) in FIG.3 marks the structure of fibrous actin, and “B” (circle) in FIG. 3 marks the position of nucleus. […] Polymerization of fibrous actin is correlated with cell migration in which polymerization of fibrous actin happens. Cell migration is the early step of tumor metastasis."}, "[3]": {"system": "B16F10 mouse melanoma cells", "assay": "Transwell (matrigel-coated) migration assay for metastasis inhibition", "type": "cell-based", "conditions": "1 μg/ml DMGF, 4 hours, 8 μm film coated with matrigel, compared to the group without DMGF (100%)", "protocol": "B16F10 mouse melanoma cells were maintained in 1% antibiotics of Dulbecco's modified Eagle's medium (DMEM; Gibco/Invitrogen, Carlsbad, Calif., USA) supplemented with heat-inactivated 10% fetal bovine serum (Gibco/Invitrogen, Carlsbad, Calif., USA). Antibiotic were preferably penicillin/streptomycin/amphotericin. Cell suspension (3×10^4) were treated with or without 1 μg/ml DMGF in the upper well of a transwell plate. The well without DMGF was used as a control group of experiment. DMEM cell culture medium was added into the upper and lower wells, and the lower well was further added fetal bovine serum, and then maintained in the incubator under 37° C. In other embodiment, B16F10 cell suspension was allowed to incubate in the 4 or 6 upper wells of transwell plate to comduct second repeat or duplicate tests, which is not for limited sense of present invention.\nThe bottom side of the upper well, which is between the upper well and the lower well, includes a transparent film. The present example applied 8 μm (coated with matrigel) transparent films for tumor metastasis test. […] The cells on the top of the filter were removed with a cotton swab and migrated cells on the underside were fixed with methanol, stained with 50 μg/ml propidium iodide and counted with a fluorescence microscope. […]"}, "B16F10 cells": {"system": "B16F10 cells", "assay": "Anti-metastatic activity in mice bearing B16F10 tumors (tumor volume)", "type": "in vivo", "conditions": "C57BL/6 mice with B16F10 tumors, 10 mg/kg and 50 mg/kg DMGF injected once every 2 to 3 days", "protocol": "At least 3 8-week-old C57BL/6 mice (female) were i.v. injected with 1×10^6 B16F10 cells. Mice bearing tumors with more than 30 mm^3 were injected with PBS, 10 mg/kg DMGF and 50 mg/kg DMGF once every 2 to 3 days. […] That is, with reference to the result of example 5, pharmaceutical composition with DMGF indeed inhibits tumor cell migration, thus inhibiting tumor metastasis."}, "TNF-α": {"system": "TNF-α", "assay": "LPS-induced TNF-α secretion by mouse splenocytes (ELISA)", "type": "cell-based", "conditions": "1 μg/ml LPS, 1.25 μg/ml DMGF, 72 hours; group without DMGF up to 200 pg/ml", "protocol": "1×10^6 mouse splenocyte suspension was seeded in 24-well culture plate supplemented with 1 μg/ml lipopolysaccharide (LPS) for inducing the immune cells of mouse splenocyte secreting TNF-α, and 0, 0.3125, 0.625, 1.25 μg/ml DMGF to each group. The mouse splenocyte were further incubated in 37° C. incubator for 72 hours. The culture medium was collected and tested for TNF-α concentration by ELISA kit for detecting TNF-α.\nWith the use of increased DMGF dose level, the lower the TNF-α concentration. For example, mouse splenocyte treated with 1.25 μg/ml DMGF secreted TNF-α concentration fell to 60 pg/ml. With reference to the result of example 6, pharmaceutical composition with DMGF has the ability to inhibit immune cells secreting TNF-α to inhibit inflammation. Since inflammation is related to improving angiogenesis and invasion, migration or other pathological effects of tumor cells, pharmaceutical composition with DMGF has the ability to inhibit inflammation, thus inhibiting tumor metastasis."}},
  "data": [
    {"smiles": "COc1cc2oc(-c3ccc(O)cc3)cc(=O)c2c(O)c1-c1c(OC)cc(O)c2c(=O)cc(-c3ccc(O)cc3)oc12", "note": "[DMGF, 7,7″-Dimethoxyagastisflavone]", "values": [
      {"measurement": "MMP2 RNA expression level relative to 0 hour group", "setting": "[1]; 12 hours", "result": 0.5, "unit": "times"},
      {"measurement": "MMP2 RNA expression level relative to 0 hour group", "setting": "[1]; 24 hours", "result": 0.3, "unit": "times"},
      {"measurement": "inhibition of aflatoxin secretion", "setting": "Aspergillus flavus", "result": "inhibiting Aspergillus flavus secreting aflatoxin"},
      {"measurement": "polymerization of fibrous actin", "setting": "[2]", "result": "multiple dots without polymerization of fibrous actin"},
      {"measurement": "reduction in the capacity of B16F10 cells to migrate through the membrane of transwell chambers", "setting": "[3]", "result": "about 65%"},
      {"measurement": "tumor volume versus PBS-treated mouse", "setting": "B16F10 cells", "result": "significantly smaller"},
      {"measurement": "TNF-α concentration secreted by mouse splenocyte", "setting": "TNF-α", "result": 60, "unit": "pg/mL"}
    ]}
  ]
}
